According to patent US20100261690A1, “NOVEL COMBINATIONS” (ASTRAZENECA R&D, priority 2009, published 2010):

Tested on: LPS-induced TNFα production in human peripheral blood mononuclear cells (PBMCs)
Assay: Inhibition of LPS-induced TNFα production in human peripheral blood mononuclear cells (AlphaLISA)
Type: cell-based
Conditions: PBMC
Method: Inhibition of Lipopolysaccharride (LPS)-Induced TNFα Production in Human Peripheral Blood Mononuclear Cells
Human isolated peripheral blood mononuclear cells (PBMCs) were pre-incubated with a range of concentrations of the GR agonist (1R,3aS,3bS,10aR,10bS,11S,12aS)-1-{[(cyanomethyl)sulfanyl]carbonyl}-7-(4-fluorophenyl)-11-hydroxy-10a,12a-dimethyl-1,2,3,3a,3b,4,5,7,10,10a,10b,11,12,12a-tetradecahydrocyclopenta[5,6]naphtho[1,2-f]indazol-1-yl furan-2-carboxylate (Compound A), alone or in the presence of a range of concentrations of a second compound with a distinct pharmacological activity for 45 minutes at 37° C. After the pre-incubation period, the cells were then incubated with LPS (5 ng/mL) for 18 hr at 37° C. to induce TNFα production. The total assay volume was 200 μL. At the end of the incubation period, 10 μL of the culture supernatant diluted 1:5 was analysed to quantify the TNFα released using AlphaLISA (PerkinElmer). The fluorescence was detected on an EnVision Alphareader. Inhibition curves were fitted using a 4-parameter logistic equation in a non-linear curve fitting routine and activity was expressed as pIC50.
In each table, the data represents the mean of two separate experiments using PBMC from healthy blood donors (n=2).

| Compound | inhibition at 1 µM (Compound A 1000 nM in combination with the listed second compound at 1 μM, mean n=2, read-out: % inhibition @ 1000 nM (maximal inhibition)) [%] | IC50 (read-out: pIC50 for inhibition of LPS-induced TNFα production from human PBMC (converted)) [nM] |
| --- | --- | --- |
| CNCCOc1ccccc1C1(Nc2nccn(-c3cc(C(=O)NC4CC4)cc(F)c3C)c2=O)CC1 [Compound E, N-cyclopropyl-3-fluoro-4-methyl-5-{3-[(1-{2-[2-(methylamino)ethoxy]phenyl}cyclopropyl)amino]-2-oxopyrazin-1(2H)-yl}benzamide] | 99.4 |  |
| C[C@]12Cc3cnn(-c4ccc(F)cc4)c3C=C1CC[C@@H]1[C@@H]2[C@@H](O)C[C@@]2(C)[C@H]1CC[C@]2(OC(=O)c1ccco1)C(=O)SCC#N [Compound A, (1R,3aS,3bS,10aR,10bS,11S,12aS)-1-{[(cyanomethyl)sulfanyl]carbonyl}-7-(4-fluorophenyl)-11-hydroxy-10a,12a-dimethyl-1,2,3,3a,3b,4,5,7,10,10a,10b,11,12,12a-tetradecahydrocyclopenta[5,6]naphtho[1,2-f]indazol-1-yl furan-2-carboxylate] |  | 0.708 |
